Experimental data taken from patent publication US11384067B2, “Pyrazole n-linked carbamoyl cyclohexyl acids as LPA antagonists” (BRISTOL-MYERS SQUIBB COMPANY, priority 2017, dated 2022).

Biological target: T1, human LPA1 (Homo sapiens, UniProt Q92633)
T1 construct: expressed in transfected cells; host or cells: Chinese hamster ovary (CHO) cells
Assay: LPA1 functional antagonist assay (LPA-induced calcium flux)
Type: cell-based
Conditions: CHO cells overexpressing human LPA1, 10 nM LPA, read-out: hLPA1 IC50
Method: The effectiveness of compounds of the present invention as LPA1 inhibitors can be determined in an LPA1 functional antagonist assay as follows:
The cells were then equilibrated to room temperature for 30 minutes before the assay. […] IC50 values were determined by fitting data to a 4-parameter logistic equation (GraphPad Prism, San Diego Calif.).

T1 sequence (Q92633 whole entry): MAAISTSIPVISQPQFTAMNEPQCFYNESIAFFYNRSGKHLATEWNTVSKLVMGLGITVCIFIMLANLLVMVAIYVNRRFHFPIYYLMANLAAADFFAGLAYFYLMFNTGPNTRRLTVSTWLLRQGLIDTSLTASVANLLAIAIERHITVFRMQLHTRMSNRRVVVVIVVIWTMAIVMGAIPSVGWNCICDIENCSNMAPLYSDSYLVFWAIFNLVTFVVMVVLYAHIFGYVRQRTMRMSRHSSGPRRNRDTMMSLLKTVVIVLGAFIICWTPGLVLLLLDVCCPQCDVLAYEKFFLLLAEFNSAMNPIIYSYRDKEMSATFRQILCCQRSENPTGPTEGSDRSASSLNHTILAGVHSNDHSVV

Row | Compound | IC50
1 | CCCCOC(=O)NCc1c(-c2ccc(O[C@H]3CCC[C@H](C(=O)O)C3)c(C)n2)cnn1C [Example 1, (1S,3S)-3-((6-(5-(((Butoxycarbonyl)amino)methyl)-1-methyl-1H-pyrazol-4-yl)-2-methylpyridin-3-yl)oxy)cyclohexanecarboxylic Acid] | 28 nM
2 | CCCCOC(=O)N(C)Cc1c(-c2ccc(O[C@H]3CCC[C@H](C(=O)O)C3)c(C)n2)cnn1C [Example 2, (1S,3S)-3-((6-(5-(((Butoxycarbonyl)(methyl)amino)methyl)-1-methyl-1H-pyrazol-4-yl)-2-methylpyridin-3-yl)oxy)cyclohexanecarboxylic Acid] | 49 nM
3 | Cc1nc(-c2cnn(C)c2CNC(=O)OCc2cccc(F)c2)ccc1O[C@H]1CCC[C@H](C(=O)O)C1 [Example 4, (1S,3S)-3-((6-(5-(((((3-fluorobenzyl)oxy)carbonyl)amino)methyl)-1-methyl-1H-pyrazol-4-yl)-2-methyl-pyridin-3-yl)oxy)cyclohexane-1-carboxylic acid] | 12 nM
4 | Cc1nc(-c2cnn(C)c2CNC(=O)O[C@H](C)c2ccccc2)ccc1O[C@H]1CCC[C@H](C(=O)O)C1 [Example 5, (1S,3S)-3-((2-methyl-6-(1-methyl-5-(((((R)-1-phenylethoxy)carbonyl)amino)methyl)-1H-pyrazol-4-yl)pyridin-3-yl)oxy)cyclohexane-1-carboxylic acid] | 11 nM
5 | Cc1nc(-c2cnn(C)c2CNC(=O)OCc2cc(F)cc(F)c2)ccc1O[C@H]1CCC[C@H](C(=O)O)C1 [Example 6, (1S,3S)-3-((6-(5-(((((3,5-difluoro-benzyl)oxy)carbonyl)amino)methyl)-1-methyl-1H-pyrazol-4-yl)-2-methyl-pyridin-3-yl)oxy)cyclohexane-1-carboxylic acid] | 7 nM
6 | Cc1cccc(COC(=O)NCc2c(-c3ccc(O[C@H]4CCC[C@H](C(=O)O)C4)cn3)cnn2C)c1 [Example 7, (1S,3S)-3-((6-(1-methyl-5-(((((3-methylbenzyl)oxy)carbonyl)amino)methyl)-1H-pyrazol-4-yl)pyridin-3-yl)oxy)cyclohexane-1-carboxylic acid] | 280 nM
7 | Cn1ncc(-c2ccc(O[C@H]3CCC[C@H](C(=O)O)C3)cn2)c1CNC(=O)OCc1cc(F)cc(F)c1 [Example 8, (1S,3S)-3-((6-(5-(((((3,5-difluoro-benzyl)oxy)carbonyl)amino)methyl)-1-methyl-1H-pyrazol-4-yl)pyridin-3-yl)oxy)cyclohexane-1-carboxylic acid] | 111 nM
8 | Cn1ncc(-c2ccc(O[C@H]3CCC[C@H](C(=O)O)C3)cn2)c1CNC(=O)OCc1cc(F)ccc1F [Example 9, (1S,3S)-3-((6-(5-(((((2,5-difluoro-benzyl)oxy)carbonyl)amino)methyl)-1-methyl-1H-pyrazol-4-yl)pyridin-3-yl)oxy)cyclohexane-1-carboxylic acid] | 71 nM
9 | CN(Cc1c(-c2ccc(O[C@H]3CCC[C@H](C(=O)O)C3)cn2)cnn1C)C(=O)OCc1cc(F)ccc1F [Example 10, (1S,3S)-3-((6-(5-(((((2,5-difluoro-benzyl)oxy)carbonyl)(methyl)amino)methyl)-1-methyl-1H-pyrazol-4-yl)pyridin-3-yl)oxy)cyclohexane-1-carboxylic acid] | 1660 nM
10 | CCCCCOC(=O)NCc1c(-c2ccc(O[C@H]3CCC[C@H](C(=O)O)C3)cn2)cnn1C [Example 12, (1S,3S)-3-((6-(1-methyl-5-((((pentyl-oxy)carbonyl)amino)methyl)-1H-pyrazol-4-yl)pyridin-3-yl)oxy)cyclohexane-1-carboxylic acid] | 16 nM
11 | CCCCCCOC(=O)NCc1c(-c2ccc(O[C@H]3CCC[C@H](C(=O)O)C3)cn2)cnn1C [Example 13, (1S,3S)-3-((6-(5-((((hexyloxy)carbonyl)amino)methyl)-1-methyl-1H-pyrazol-4-yl)pyridin-3-yl)oxy)cyclohexane-1-carboxylic acid] | 834 nM
12 | Cn1ncc(-c2ccc(O[C@H]3CCC[C@H](C(=O)O)C3)cn2)c1CNC(=O)OCC(C)(C)C [Example 14, (1S,3S)-3-((6-(1-methyl-5-((((neo-pentyloxy)carbonyl)amino)methyl)-1H-pyrazol-4-yl)pyridin-3-yl)oxy)cyclohexane-carboxylic acid] | 207 nM
13 | Cc1cccc(COC(=O)NCc2c(-c3ccc(O[C@H]4CCC[C@H](C(=O)O)C4)c(C)n3)cnn2C)c1 [Example 15, (1S,3S)-3-((2-methyl-6-(1-methyl-5-(((((3-methylbenzyl)oxy)carbonyl)amino)methyl)-1H-pyrazol-4-yl)pyridin-3-yl)oxy)cyclohexane-1-carboxylic acid] | 2 nM
14 | C[C@@H](OC(=O)NCc1c(-c2ccc(O[C@H]3CCC[C@H](C(=O)O)C3)cn2)cnn1C)c1ccccc1 [Example 16, (1S,3S)-3-((6-(1-methyl-5-(((((R)-1-phenylethoxy)carbonyl)amino)methyl)-1H-pyrazol-4-yl)pyridin-3-yl)oxy)cyclohexane-1-carboxylic acid] | 23 nM
15 | CC(C)COC(=O)NCc1c(-c2ccc(O[C@H]3CCC[C@H](C(=O)O)C3)cn2)cnn1C [Example 17, (1S,3S)-3-((6-(5-(((isobutoxy-carbonyl)amino)methyl)-1-methyl-1H-pyrazol-4-yl)pyridin-3-yl)oxy)cyclohexane-1-carboxylic acid] | 1640 nM
16 | CCCCOC(=O)NCc1c(-c2ccc(O[C@H]3CCC[C@H](C(=O)O)C3)cn2)cnn1C [Example 18, (1S,3S)-3-((6-(5-(((butoxycarbonyl)amino)methyl)-1-methyl-1H-pyrazol-4-yl)pyridin-3-yl)oxy)cyclohexane-1-carboxylic acid] | 325 nM
17 | CCCCCOC(=O)NCc1c(-c2ccc(O[C@H]3CCC[C@H](C(=O)O)C3)c(C)n2)cnn1C [Example 19, (1S,3S)-3-((2-methyl-6-(1-methyl-5-((((pentyloxy)carbonyl)amino)methyl)-1H-pyrazol-4-yl)pyridin-3-yl)oxy)cyclohexane-1-carboxylic acid] | 4 nM
18 | CCCOC(=O)NCc1c(-c2ccc(O[C@H]3CCC[C@H](C(=O)O)C3)c(C)n2)cnn1C [Example 20, (1S,3S)-3-((2-methyl-6-(1-methyl-5-(((propoxycarbonyl)amino)methyl)-1H-pyrazol-4-yl)pyridin-3-yl)oxy)cyclohexane-1-carboxylic acid] | 275 nM
19 | Cc1cccc(COC(=O)NCc2c(-c3ccc(O[C@H]4CCC[C@H](C(=O)O)C4)cn3)cnn2C)c1 [Example 21, (1S,3S)-3-((6-(1-methyl-5-(((((3-methylbenzyl)oxy)carbonyl)amino)methyl)-1H-pyrazol-4-yl)pyridin-3-yl)oxy)cyclohexane-1-carboxylic acid] | 182 nM
20 | Cn1ncc(-c2ccc(O[C@H]3CCC[C@H](C(=O)O)C3)cn2)c1CNC(=O)OCCc1ccccc1 [Example 22, (1S,3S)-3-((6-(1-methyl-5-(((phen-ethoxycarbonyl)amino)methyl)-1H-pyrazol-4-yl)pyridin-3-yl)oxy)cyclohexane-1-carboxylic acid] | 355 nM
21 | CCCCOC(=O)N(C)Cc1c(-c2ccc(O[C@H]3CCC[C@H](C(=O)O)C3)cn2)cnn1C [Example 23, (1S,3S)-3-((6-(5-(((butoxycarbonyl)(methyl)amino)methyl)-1-methyl-1H-pyrazol-4-yl)pyridin-3-yl)oxy)cyclohexane-1-carboxylic acid] | 243 nM
22 | CN(Cc1c(-c2ccc(O[C@H]3CCC[C@H](C(=O)O)C3)cn2)cnn1C)C(=O)OCc1ccccc1 [Example 24, (1S,3S)-3-((6-(5-((((benzyloxy)carbonyl)(methyl)amino)methyl)-1-methyl-1H-pyrazol-4-yl)pyridin-3-yl)oxy)cyclohexane-1-carboxylic acid] | 204 nM
23 | Cn1ncc(-c2ccc(O[C@H]3CCC[C@H](C(=O)O)C3)cn2)c1CNC(=O)OCc1ccccc1 [Example 25, (1S,3S)-3-((6-(5-((((benzyloxy)carbonyl)amino)methyl)-1-methyl-1H-pyrazol-4-yl)pyridin-3-yl)oxy)cyclohexane-1-carboxylic acid] | 20 nM
24 | CCCCCCOC(=O)NCc1c(-c2ccc(O[C@H]3CCC[C@H](C(=O)O)C3)c(C)n2)cnn1C [Example 26] | 14 nM
25 | Cc1nc(-c2cnn(C)c2CNC(=O)OCC(C)(C)C)ccc1O[C@H]1CCC[C@H](C(=O)O)C1 [Example 27] | 22 nM
26 | Cc1nc(-c2cnn(C)c2CNC(=O)OCC(C)C)ccc1O[C@H]1CCC[C@H](C(=O)O)C1 [Example 28, (1S,3S)-3-((6-(5-(((isobutoxy-carbonyl)amino)methyl)-1-methyl-1H-pyrazol-4-yl)-2-methylpyridin-3-yl)oxy)cyclohexane-1-carboxylic acid] | 29 nM
27 | Cc1nc(-c2cnn(C)c2CNC(=O)OCC(C)C)cnc1O[C@H]1CCC[C@H](C(=O)O)C1 [Example 29, (1S,3S)-3-((5-(5-(((isobutoxy-carbonyl)amino)methyl)-1-methyl-1H-pyrazol-4-yl)-3-methylpyrazin-2-yl)oxy)cyclohexane-1-carboxylic acid] | 1200 nM
28 | CCCCOC(=O)NCc1c(-c2cnc(O[C@H]3CCC[C@H](C(=O)O)C3)c(C)n2)cnn1C [Example 30, (1S,3S)-3-((5-(5-(((butoxycarbonyl)amino)methyl)-1-methyl-1H-pyrazol-4-yl)-3-methylpyrazin-2-yl)oxy)cyclohexane-1-carboxylic acid] | 283 nM
29 | Cc1nc(-c2cnn(C)c2CNC(=O)OCc2ccccc2)cnc1O[C@H]1CCC[C@H](C(=O)O)C1 [Example 31, (1S,3S)-3-((5-(5-((((benzyloxy)carbonyl)amino)methyl)-1-methyl-1H-pyrazol-4-yl)-3-methylpyrazin-2-yl)oxy)cyclohexane-1-carboxylic acid] | 29 nM
30 | Cc1nc(-c2cnn(C)c2CN(C)C(=O)OCc2ccccc2)ccc1O[C@H]1CCC[C@H](C(=O)O)C1 [Example 32, (1S,3S)-3-((6-(5-((((benzyloxy)carbonyl)(methyl)amino)methyl)-1-methyl-1H-pyrazol-4-yl)-2-methyl-pyridin-3-yl)oxy)cyclohexane-1-carboxylic acid] | 211 nM
